Data taken from patent publication US20250102527A1, “METHOD AND DEVICE FOR DETERMINING THE VITAMIN STATUS” (TECHNISCHE UNIVERSITÄT MÜNCHEN, priority 2022, published 2025).
“Also recorded” adds a separate entry of the source.

Legend:
[1] = target: T1, recombinant SHMT1 (Homo sapiens, UniProt P34896); assay: Microarray readout of PL2P probe signal on recombinant SHMT1 preincubated with PLP; assay type: binding; details: apoSHMT1 preincubated with 0.5-4.0 eq PLP, fixed with NaBH4, 100 μM PL2P, click to rhodamine azide
T1 construct: made in house; host or cells: E. coli Rosetta2 (DE3)
T1 sequence (P34896 1-483): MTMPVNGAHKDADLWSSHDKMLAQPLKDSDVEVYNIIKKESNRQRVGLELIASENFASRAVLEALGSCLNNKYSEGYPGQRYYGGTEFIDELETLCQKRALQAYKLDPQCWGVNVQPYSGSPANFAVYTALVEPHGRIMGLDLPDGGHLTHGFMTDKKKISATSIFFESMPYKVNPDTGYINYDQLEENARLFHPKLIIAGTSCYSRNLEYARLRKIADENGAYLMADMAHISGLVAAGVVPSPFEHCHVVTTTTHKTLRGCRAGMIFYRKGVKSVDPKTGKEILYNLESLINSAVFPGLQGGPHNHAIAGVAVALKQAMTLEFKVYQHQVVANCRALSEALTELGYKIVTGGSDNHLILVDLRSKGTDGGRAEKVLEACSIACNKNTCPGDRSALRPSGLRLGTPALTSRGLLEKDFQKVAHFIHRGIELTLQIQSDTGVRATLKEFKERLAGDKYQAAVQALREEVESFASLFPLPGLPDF
Description: FIG. 11. Signal intensity is dependent on saturation level of PLP-DE with PLP. • (A) PLP loading states of recombinant SHMT1 incubated with increasing equivalents (eq) of PLP were determined by intact protein-MS (n=3) as described previously (Hoegl et al., 2018). • (B) Microarray read out of recombinant SHMT1 bound PL2P probe signals preincubated with PLP equivalents in a physiological range of 0.5-4.0 eq. Mean signal intensities of anti-SHMT1 (n=8) corrected to BSA control and error bars (SD) after fluorescent readout of anti-SHMT1 3. Sample preparation according to workflow 3, as described in the Examples.
40 μM apoSHMT1 (25 μL) samples were incubated with increasing amounts of PLP (0 eq., 0.50 eq., 1.00 eq., 4.00 eq., 32.0 eq.) for 1 h at r.t. and subsequently treated with 20 mM NaBH4 (250 mM stock solution in 0.1 M NaOH) for 30 min at r.t. Reduction was quenched by adding cold acetone (4× volume of sample, −20° C.) for at least 1 h. Precipitated proteins were pelletized (10 000 rpm, 15 min, 4° C.) and supernatant was discarded. […] Samples are subsequently incubated and analysed on the microarrays. […]
The samples were analysed in a single colour approach (without secondary antibody incubation) or dual-colour approach (with secondary antibody incubation) using custom microarrays containing antibodies against OAT, SHMT and PLPBP or a subset of these antibodies. […]

[2] = target: T2, recombinant human PLP binding protein (PLPBP, UniProt 094903) (Homo sapiens, UniProt O94903); assay: Gel-based labeling of recombinant PLPBP with PLxP probes (fluorescence SDS-PAGE); details: for labeling of recombinant PLPBP by PLP cofactor mimic: 1 μM PLPBP, 100 μM probe, 1 h r.t., NaBH4 reduction, click to Cy5, fluorescence SDS-Page
T2 construct: made in house; host or cells: E. coli Rosetta2 (DE3)
T2 sequence (O94903 whole entry): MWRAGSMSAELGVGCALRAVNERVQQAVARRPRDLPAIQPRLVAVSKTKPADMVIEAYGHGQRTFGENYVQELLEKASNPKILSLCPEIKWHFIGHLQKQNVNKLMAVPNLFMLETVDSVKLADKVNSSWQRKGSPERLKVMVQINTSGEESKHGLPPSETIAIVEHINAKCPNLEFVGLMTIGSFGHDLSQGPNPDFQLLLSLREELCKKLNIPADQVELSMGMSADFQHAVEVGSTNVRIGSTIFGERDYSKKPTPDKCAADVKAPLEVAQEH
Description: Conditions: 1 μM PLPBP, 100 μM probe (incubation 1 h, r.t.), reduction (NaBH4), precipitation (Aceton), wash (MeOH), redissolve in PBS+0.2% SDS, click to Cy5. Analysis via fluorescence SDS-Page.
Structures of the different PLP probes PL1P, PL2P and PL13P (top) that were tested for their labeling efficiency of recombinant PLP binding protein (PLPBP), separately and all three in combination on a fluorescent SDS gel (bottom). The denaturation of PLPBP via increased temperature (heat control, h.c.) prior to labeling with the combination of probes served as negative control. FM=fluorescent marker.
In brief, PLPBP (1 μM in PBS, total volume: 50 μL) was labeled with PLxP probe or mixture of PLxP probes (PL1P, PL2P, PL13P, final conc. 100 μM) at room temperature for 30 min. Upon reduction with […] NaBH4 (1 μl of 250 mM prepared fresh in 0.1 M NaOH) at room temperature for 30 min, proteins were precipitated by adding ice-cold acetone (4× volume) and incubating at −20° C. for at least 1 h. Precipitated proteins were pelletized by centrifugation (18,000×g, 15 min, 4° C.) and washed two times with ice-cold MeOH. For washing, protein pellet is resuspended in 0.2 mL cold methanol (−80° C.) by mild sonication (10 s, 10% intensity) and centrifuged (10 000 rpm, 10 min, 4° C.). Pelletized proteins were resuspended in 50 μl PBS containing […] SDS and Click chemistry was performed by adding 100 μM Cy5 azide (1 μL of 5 mM in DMSO), 100 μM TBTA (3 μL of 1.67 mM in/BuOH/DMSO 80:20), 1 mM TCEP (0.5 μL of 15 mg/mL stock in ddH2O) and 1 mM CuSO4 (1 μL of 50 mM stock in ddH2O) to each sample and incubated for at least 1 h at r.t. Samples were quenched with 2× Lämmli buffer and analysed by SDS-PAGE (12.5% polyacrylamide gels) with subsequent fluorescence scanning.
For this, we selected recombinant human PLP binding protein (PLPBP, UniProt 094903) as a medium abundant model PLP-DE of human erythrocytes.
Conditions: 1 μM PLPBP, 100 μM probe (incubation 1 h, r.t.), reduction (NaBH4), precipitation (aceton), wash (MeOH), redissolve in PBS+0.2% SDS, click to Cy5. Analysis via fluorescence SDS-Page. Results see FIG. 6.

Row | Compound | PL2P probe signal intensity on microarray with increasing PLP saturation of SHMT1 [1] | labeling of recombinant PLPBP by PLP cofactor mimic [2] | most suitable PLP cofactor mimic for labeling of recombinant PLPBP ([2]; comparison of PL1P, PL2P, PL13P via SDS-Page)
1 | Cc1ncc(COP(=O)(O)O)c(C=O)c1O [PLP, pyridoxal phosphate] | decrease in signal intensity; also recorded: decline in signal intensity |  | 
2 | (6-(but-3-yn-1-yl)-4-formyl-5-hydroxypyridin-3-yl)methyl phosphate [PL2P] |  | successfully tested | most suitable
3 | C#Cc1ncc(COP(=O)(O)O)c(C=O)c1O [PL1P, (6-ethynyl-4-formyl-5-hydroxypyridin-3-yl)methyl phosphate] |  | successfully tested | 
4 | (4-formyl-6-methyl-5-(prop-2-yn-1-yloxy)pyridin-3-yl)methyl phosphate [PL13P] |  | successfully tested | 
